What is called IC50 is the concentration needed to halve the response being measured.

We go through 15 compounds from patent US9120791B2, “Indolizine compounds, a process for their preparation and pharmaceutical compositions containing them” (LES LABORATOIRES SERVIER, priority 2012, dated 2015).

Where a name gives a salt, the structure may show the parent alone. Read-outs that look alike come from different tables or passages of the source.

Assay [1] concerns RS4;11 leukaemia tumour line. The assay is described as follows: In vitro cytotoxicity (Microculture Tetrazolium Assay, 48 hours). The following applies: RS4;11 cells, 48 hours exposure, MTT, concentration that inhibits cell viability by 50%, read-out: IC50 (nM) MTT RS4. It is filed as cell-based. The protocol:
The cytotoxicity studies were carried out on the RS4;11 leukaemia tumour line.
The cells are distributed onto microplates and exposed to the test compounds for 48 hours.

In a further assay the target is Bcl-2 protein (Homo sapiens (Human), UniProt P10415). The assay is described as follows: Inhibition of Bcl-2 by the fluorescence polarisation technique. It is filed as binding. Conditions: fluorescence polarisation test; concentration that inhibits fluorescence polarisation by 50%; read-out: IC50 (nM) Bcl-2 FP. On the procedure:
The fluorescence polarisation tests were carried out on microplates (384 wells). […] After incubation for 2 hours, the fluorescence polarisation is measured.
(In general: Polarisation of emitted light reports the rotation of a fluorescent probe.)

Sequence of Bcl-2 protein (P10415 whole entry): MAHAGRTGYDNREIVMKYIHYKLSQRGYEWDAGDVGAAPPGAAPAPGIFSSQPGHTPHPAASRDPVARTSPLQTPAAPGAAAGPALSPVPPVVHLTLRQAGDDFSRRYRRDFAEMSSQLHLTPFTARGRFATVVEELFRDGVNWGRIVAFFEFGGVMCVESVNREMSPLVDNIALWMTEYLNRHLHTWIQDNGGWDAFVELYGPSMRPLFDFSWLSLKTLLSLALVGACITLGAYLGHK

For `COCCN(C)C[C@@H]1Cc2ccccc2CN1C(=O)c1cc2c(cc1-c1cc(C(=O)N(c3ccccc3)c3ccc(O)cc3)c3n1CCCC3)OCO2` [Example 146, N-(4-Hydroxyphenyl)-3-(6-{[(3S)-3-{[(2-methoxyethyl)(methyl)amino]-methyl}-3,4-dihydroisoquinolin-2(1H)-yl]carbonyl}-1,3-benzodioxol-5-yl)-N-phenyl-5,6,7,8-tetrahydroindolizine-1-carboxamide hydrochloride], the IC50 in assay [1] (Homo sapiens) turned out to be 153 nM. For the compound `O=C(c1cc(-c2cc(Cl)ccc2C(=O)N2Cc3ccccc3C[C@H]2CN2CCOCC2)n2c1CCCC2)N(c1ccc(O)cc1)c1cncnc1` [Example 141, 3-(5-Chloro-2-{[(3S)-3-(morpholin-4-ylmethyl)-3,4-dihydroisoquinolin-2(1H)-yl]carbonyl}phenyl)-N-(4-hydroxyphenyl)-N-(pyrimidin-5-yl)-5,6,7,8-tetrahydroindolizine-1-carboxamide hydrochloride], in assay [1] (Homo sapiens), the half-maximal inhibitory concentration (IC50) amounted to 72.5 nM. As to `COc1ccc(C(=O)N2Cc3ccccc3C[C@H]2CN2CCOCC2)c(-c2cc(C(=O)N(c3ccc(O)cc3)c3ccc4c(cnn4C)c3)c3n2CCCC3)c1` [Example 104, N-(4-Hydroxyphenyl)-3-(5-methoxy-2-{[(3S)-3-(morpholin-4-ylmethyl)-3,4-dihydroisoquinolin-2(1H)-yl]carbonyl}phenyl)-N-(1-methyl-1H-indazol-5-yl)-5,6,7,8-tetrahydroindolizine-1-carboxamide hydrochloride], the IC50 on Bcl-2 protein is 7 nM; in assay [1] (Homo sapiens), 21.6 nM. The matching figures for `Cn1ncc2cc(N(C(=O)c3cc(-c4cc(Cl)ccc4C(=O)N4Cc5ccccc5C[C@H]4CN4CCOCC4)n4c3CCCC4)c3ccc(O)cc3)ccc21` [Example 42, 3-{5-Chloro-2-[((3S)-3-(4-morpholinylmethyl)-3,4-dihydro-2(1H)-isoquinolinyl)carbonyl]phenyl}-N-(4-hydroxyphenyl)-N-(1-methyl-1H-indazol-5-yl)-5,6,7,8-tetrahydro-1-indolizine carboxamide hydrochloride]: 13 nM and 53.6 nM.

For `O=C(c1cc(-c2cc3c(cc2C(=O)N2Cc4ccccc4C[C@H]2CN2CCS(=O)(=O)CC2)OCO3)n2c1CCCC2)N(c1ccccc1)c1ccc(O)cc1` [Example 147, 3-(6-{[(3S)-3-[(1,1-Dioxidothiomorpholin-4-yl)methyl]-3,4-dihydroisoquinolin-2(1H)-yl]carbonyl}-1,3-benzodioxol-5-yl)-N-(4-hydroxyphenyl)-N-phenyl-5,6,7,8-tetrahydroindolizine-1-carboxamide hydrochloride], the IC50 in assay [1] (Homo sapiens) was 74.2 nM. Same read-out and setting: with `COc1c(F)cc(N(C(=O)c2cc(-c3cc(Cl)ccc3C(=O)N3Cc4ccccc4C[C@H]3CN3CCOCC3)n3c2CCCC3)c2ccc(O)cc2)cc1F` [Example 143, 3-(5-Chloro-2-{[(3S)-3-(morpholin-4-ylmethyl)-3,4-dihydroisoquinolin-2(1H)-yl]carbonyl}phenyl)-N-(3,5-difluoro-4-methoxyphenyl)-N-(4-hydroxyphenyl)-5,6,7,8-tetrahydroindolizine-1-carboxamide hydrochloride] the figure was 43.8 nM; with `O=C(c1cc(-c2cc(Cl)ccc2C(=O)N2Cc3ccccc3C[C@H]2CN2CCOCC2)n2c1CCCC2)N(c1ccncc1)c1ccc(O)cc1` [Example 144, 3-(5-Chloro-2-{[(3S)-3-(morpholin-4-ylmethyl)-3,4-dihydroisoquinolin-2(1H)-yl]carbonyl}phenyl)-N-(4-hydroxyphenyl)-N-(pyridin-4-yl)-5,6,7,8-tetrahydroindolizine-1-carboxamide bis(hydrochloride)], 59.9 nM. For the compound `CCOc1ccc(C(=O)N2Cc3ccccc3C[C@H]2CN2CCOCC2)c(-c2cc(C(=O)N(c3ccc(O)cc3)c3ccc4c(ccn4C)c3)c3n2CCCC3)c1` [Example 36, 3-{5-Ethoxy-2-[((3S)-3-(4-morpholinylmethyl)-3,4-dihydro-2(1H)-isoquinolinyl)carbonyl]phenyl}-N-(4-hydroxyphenyl)-N-(1-methyl-H-indol-5-yl)-5,6,7,8-tetrahydro-1-indolizine carboxamide hydrochloride], in assay [1], the IC50 came out at 135 nM. On to `O=C(c1cc(-c2cc(Cl)ccc2C(=O)N2Cc3ccccc3C[C@H]2CN2CCOCC2)n2c1CCCC2)N(c1ccc(O)cc1)c1cccnc1` [Example 142, 3-(5-Chloro-2-{[(3S)-3-(morpholin-4-ylmethyl)-3,4-dihydroisoquinolin-2(1H)-yl]carbonyl}phenyl)-N-(4-hydroxyphenyl)-N-(pyridin-3-yl)-5,6,7,8-tetrahydroindolizine-1-carboxamide bis(hydrochloride)], for which, in assay [1] (Homo sapiens), the IC50 came to 66.1 nM. Still for that read-out and setting: with `Cl.[2H]C1([2H])Oc2cc(C(=O)N3Cc4ccccc4C[C@H]3CN3CCOCC3)c(-c3cc(C(=O)N(c4ccccc4)c4ccc(O)cc4)c4n3CCCC4)cc2O1` [Example 38, N-(4-Hydroxyphenyl)-3-{2,2-dideuterio-6-[((3S)-3-(4-morpholinylmethyl)-3,4-dihydro-2(1H)-isoquinolinyl)carbonyl]-1,3-benzodioxol-5-yl}-N-phenyl-5,6,7,8-tetrahydro-1-indolizine carboxamide hydrochloride] the figure was 61.8 nM; with `COc1ccc(N(C(=O)c2cc(-c3cc(Cl)ccc3C(=O)N3Cc4ccccc4C[C@H]3CN3CCOCC3)n3c2CCCC3)c2ccc(O)cc2)cc1F` [Example 145, 3-(5-Chloro-2-{[(3S)-3-(morpholin-4-ylmethyl)-3,4-dihydroisoquinolin-2(1H)-yl]carbonyl}phenyl)-N-(3-fluoro-4-methoxyphenyl)-N-(4-hydroxyphenyl)-5,6,7,8-tetrahydroindolizine-1-carboxamide hydrochloride], 28.9 nM; with `Cl.[2H]C1([2H])Oc2cc(C(=O)N3Cc4ccccc4C[C@H]3CN3CCOCC3)c(-c3cc(C(=O)N(c4ccc(O)cc4)c4ccc5c(ccn5C)c4)c4n3CCCC4)cc2O1` [Example 37, N-(4-Hydroxyphenyl)-N-(1-methyl-1H-indol-5-yl)-3-{2,2-dideuterio-6-[((3S)-3-(4-morpholinylmethyl)-3,4-dihydro-2(1H)-isoquinolinyl)carbonyl]-1,3-benzodioxol-5-yl}-5,6,7,8-tetrahydro-1-indolizine carboxamide hydrochloride], 11.6 nM. Take `Cn1ccc2cc(N(C(=O)c3cc(-c4cc5c(cc4C(=O)N4Cc6ccccc6C[C@H]4CN4CCOCC4)OCO5)n4c3CCCCC4)c3ccc(O)cc3)ccc21` [Example 84, hydrochloride]: in assay [1] (Homo sapiens), the concentration for half-maximal inhibition (IC50) came to 20.6 nM.

On to `Cn1ccc2cc(N(C(=O)c3cc(-c4cc5c(cc4C(=O)N4Cc6ccccc6C[C@H]4CN4CCOCC4)OCO5)n4c3CCCC4)c3ccc(O)cc3)ccc21` [Example 10, N-[4-(Hydroxy)phenyl]-N-(1-methyl-1H-indol-5-yl)-3-{6-[((3S)-3-(4-morpholinylmethyl)-3,4-dihydro-2(1H)-isoquinolinyl)carbonyl]-1,3-benzodioxol-5-yl}-5,6,7,8-tetrahydro-1-indolizine carboxamide hydrochloride], for which the IC50 in assay [1] (Homo sapiens) worked out at 11 nM. On to `O=C(c1cc(-c2cc3c(cc2C(=O)N2Cc4ccccc4C[C@H]2CN2CCOCC2)OCO3)n2c1CCCC2)N(c1ccccc1)c1ccc(O)cc1` [Example 1, N-(4-Hydroxyphenyl)-3-{6-[((3S)-3-(4-morpholinylmethyl)-3,4-dihydro-2(1H)-isoquinolinyl)carbonyl]-1,3-benzdioxol-5-yl}-N-phenyl-5,6,7,8-tetrahydro-1-indolizine carboxamide hydrochloride], for which the IC50 in assay [1] (Homo sapiens) was found to be 60.1 nM.
